Data: patent US7563791B2, “Pyrrolotriazine derivatives useful for treating hyper-proliferative disorders and diseases associated with angiogenesis” (Bayer Pharmaceuticals Corporation, priority 2004, dated 2009)

Columns and labels:
Type in all cases: cell-based
[1] = test system: histone 3 phosphorylation in colon carcinoma (HCT116); experiment: p-Histone3 assay: inhibition of histone 3 phosphorylation in HCT116; conditions: Homo sapiens, HCT-116, 24 h, HCT116, 24 hours compound treatment
Method: Compounds were assayed for the inhibition of histone 3 phosphorylation in colon carcinoma (HCT116). Briefly, 20,000 cells/well were seeded in a 96-well black-walled, poly-d-lysine plates in RPMI+10% FBS and incubated at 37° C. in 5% CO2 overnight. The following day, the cells were treated with compounds for 24 hours at 37° C. Following compound treatment; plates were centrifuged at 1000 rpm for 2 minutes and washed twice with 100 μl of cold sterile TBS. Cells were then fixed with cold 3.7% formaldehyde in TBS (4° C. for 1 hour) and then permeabolized with 0.1% Triton-X-100 in TBS (room temperature for 30 minutes). Plates were then washed with of 0.25% BSA-TBS and blocked with BSA solution for 1 hour at room temperature while shaking. The supernatant was removed and replaced with diluted primary antibody (anti-phospho-histone 3, serine 10, Cell Signaling) at 1:250 in 0.25% BSA-TBS and incubated overnight at 4° C. The plates were washed and treated with diluted secondary antibody (anti-rabbit Eu-labeled) at 1:10000 in 0.25% BSA-TBS (room temperature for 1 hour). The antibody solution was removed from each well and washed eight times. The wash buffer was replaced with 50 μl pre-warmed enhancement solution and mixed on the orbital shaker for 10 minutes. Fluorescence was detected with a Victor V Fluorescence Detector. The data are expressed as percent inhibition: % inhibition=100−((Signal with inhibitor-background)/(Signal without inhibitor-background))×100.

[2] = test system: FGFR stimulated HUVEC proliferation; experiment: BRDU growth factor stimulated proliferation of HUVEC (bFGF stimulation); conditions: Homo sapiens, 72 h, 1.5 ng/ml bFGF, 3 days, BrdU incorporation
Method: (§1) BRDU Growth Factor Stimulated Proliferation of HUVEC
(§2) Exponentially growing human umbilical vein endothelial cells (HUVEC; Cat# CC-2519A, Cambrex, Walkersville, Md.) were seeded at two thousand cells/well into Collagen IV-coated 96 well plates (Cat#35-4429, Becton Dickinson, Bedford, Mass.) in assay media containing RPMI-1640 (Cat#11875-093, Gibco, Carlsbad, Calif.), 0.5% charcoal-stripped serum (Cat# SH30068.03, HyClone, Logan, Utah), and 1% N-2 supplement (Cat#17502-048, Gibco, Carlsbad, Calif.). Fours hours after incubating the plates at 37° C. in 5% CO2, the cells were treated with different concentrations of compound (diluted in assay media with a final DMSO concentration=0.1%) and then were immediately stimulated with 80 ng/ml of vascular endothelial growth factor (VEGF, Cat#100-20, PeproTech, Rocky Hill, N.J.) or 1.5 ng/ml of basic fibroblast growth factor (bFGF, Catt#100-18B, PeproTech, Rocky Hill, N.J.). Treated cells were incubated for 3 days at 37° C. in 5% CO2. DNA synthesis was measured via the incorporation of bromodeoxyuridine (BrdU) into newly synthesized DNA using the Amersham Cell Proliferation BioTrack ELISA system (Cat# RPN250, Amersham, Piscataway, N.J.). Diluted BrdU solution (20 μl of stock BrdU diluted 1:20 fold into assay media) was added to each well and incubation proceeded for 6 hours at 37° C. in 5% CO2. The media was removed and the cells were fixed according to the specifications of the Amersham assay kit for 30 minutes at room temperature. After removing the fixative, blocking buffer (supplied by Amersham kit; 200 μl/well) was added and the plates were stored at 4° C. overnight. The blocking buffer was aspirated and peroxidase-labeled anti-BrdU antibody (supplied by Amersham kit; 100 μl/well) was added and incubated for 3 hours at room temperature. The plates were washed three times with wash buffer (supplied by Amersham kit; 300 μl/well/wash). Immediately following the washes, 100 μl of the TMB-substrate was dispensed into each well and the plates were further incubated for 30 minutes at room temperature. The reaction was terminated by the addition of 25 μl of 1M H2SO4. Plates were read immediately at 450 nm using a SpectraMAX 250 spectrophotometer plate reader (Molecular Devices, Sunnyvale, Calif.). The software utilized was SoftMAX pro v.2.4.1.

[3] = test system: MDA-MB-231 cells; experiment: Tumor cell proliferation (Alamar Blue), MDA-MB-231; conditions: Homo sapiens, MDA-MB-231, 72 h
Summary of the method: (§3)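 Cells seeded at 3.0×10^3/well in RPMI with 10% FBS for 16 h, then treated with compound (added medium held 40 μM to 18 nM compound, 0.4% DMSO) for 72 h at 37 °C, 5% CO2. Viability by Alamar Blue, 3 h, fluorescence 544/590 nm. IC50 by linear regression of log concentration versus percent inhibition.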

[4] = test system: VEGF stimulated Phospho-ERK in HUVEC; experiment: Growth factor stimulated p-ERK assay in HUVECs (VEGF stimulation, ERK1/2 Bioplex); conditions: Homo sapiens, compound 2 hrs, then 50 ng/ml VEGF 10 min; for inhibition at 0.1 µM: @ 100 nM
Summary of the method: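 HUVECs in serum-free RPMI 1640/0.1% BSA pretreated with compound 2 hrs, then stimulated 10 min with 50 ng/ml VEGF (or bFGF). Lysate phospho-ERK1/2 quantified by bead-based Bio-Plex immunoassay on Luminex.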

[5] = test system: VEGFR stimulated HUVEC proliferation; experiment: BRDU growth factor stimulated proliferation of HUVEC (VEGF stimulation); conditions: Homo sapiens, 72 h, 80 ng/ml VEGF, 3 days, BrdU incorporation
Method: as §1, §2

[6] = test system: HCT116 cells; experiment: Tumor cell proliferation (Alamar Blue), HCT116; conditions: Homo sapiens, HCT-116, 72 h
Summary of the method: as §3

SMILES	IC50 [1] [µM]	IC50 [2] [µM]	IC50 [5] [nM]	IC50 ([3]; bounds given in μM) [µM]	IC50 ([6]; bounds given in μM) [µM]	other results
CCOC(=O)c1cn2ncnc(N)c2c1-c1ccc(NC(=O)Nc2ccccc2C(F)(F)F)cc1 [Example 7, ethyl 4-amino-5-{4-[({[2-(trifluoromethyl)phenyl]amino}carbonyl)amino]phenyl}pyrrolo[2,1-f][1,2,4]triazine-6-carboxylate]	> 0.5	–	–	–	–	IC50 ([1]; bound given in μM): < 1 µM
CCOC(=O)c1cn2ncnc(N)c2c1-c1ccc(NC(=O)Nc2ccc3c(c2)OCO3)cc1 [Example 13, ethyl 4-amino-5-(4-{[(1,3-benzodioxol-5-ylamino)carbonyl]amino}phenyl)pyrrolo[2,1-f][1,2,4]triazine-6-carboxylate]	> 0.5	–	–	–	–	IC50 ([1]; bound given in μM): < 1 µM
Nc1ncnn2cc(C(=O)NCC(F)(F)F)c(-c3ccc(NC(=O)Nc4cc(C(F)(F)F)ccc4F)cc3)c12 [Example 70, 4-amino-5-{4-[({[2-fluoro-5-(trifluoromethyl)phenyl]amino}carbonyl)amino]phenyl}-N-(2,2,2-trifluoroethyl)pyrrolo[2,1-f][1,2,4]triazine-6-carboxamide]	–	< 0.1	< 10	–	–	IC50 [3]: < 0.5 µM; inhibition at 0.1 µM [4]: > 50%; IC50 [6]: < 0.5 µM
Nc1ncnn2cc(C(=O)NCC(F)(F)F)c(-c3ccc(NC(=O)Nc4ccc(F)c(C(F)(F)F)c4)cc3)c12 [Example 88, 4-amino-5-{4-[({[4-fluoro-3-(trifluoromethyl)phenyl]amino}carbonyl)amino]phenyl}-N-(2,2,2-trifluoroethyl)pyrrolo[2,1-f][1,2,4]triazine-6-carboxamide]	< 0.5	–	–	–	–	–
Nc1ncnn2cc(C(=O)NCC(F)(F)F)c(-c3ccc(NC(=O)Nc4cccc(CC(F)(F)F)c4)cc3)c12 [Example 92, 4-amino-N-(2,2,2-trifluoroethyl)-5-{4-[({[3-(2,2,2-trifluoroethyl)phenyl]amino}carbonyl)amino]phenyl}pyrrolo[2,1-f][1,2,4]triazine-6-carboxamide]	< 0.5	–	–	–	–	–
N#Cc1cn2ncnc(N)c2c1-c1ccc(NC(=O)Nc2cc(C(F)(F)F)ccc2F)cc1 [Example 99, N-[4-(4-amino-6-cyanopyrrolo[2,1-f][1,2,4]triazin-5-yl)phenyl]-N′-[2-fluoro-5-(trifluoromethyl)phenyl]urea]	–	< 0.1	100 to 500	< 1.5	1.5 to 5	IC50 [3]: > 0.5 µM; inhibition at 0.1 µM [4]: < 50%; inhibition at 1 µM ([4]; @ 1 μM): > 50%
Nc1ncnn2cc(C(=O)NCC(F)(F)F)c(-c3ccc(NC(=O)Nc4cccc(C(F)(F)F)n4)cc3)c12 [Example 139, 4-amino-N-(2,2,2-trifluoroethyl)-5-{4-[({[6-(trifluoromethyl)pyridin-2-yl]amino}carbonyl)amino]phenyl}pyrrolo[2,1-f][1,2,4]triazine-6-carboxamide]	< 0.5	–	–	–	–	–
CC(C)(C)NC(=O)c1cn2ncnc(N)c2c1-c1ccc(NC(=O)Nc2cccc(C(F)(F)F)n2)cc1 [Example 164, 4-amino-N-(tert-butyl)-5-{4-[({[6-(trifluoromethyl)pyridin-2-yl]amino}carbonyl)amino]phenyl}pyrrolo[2,1-f][1,2,4]triazine-6-carboxamide]	< 0.5	–	–	–	–	–
CC(C)(C)CNC(=O)c1cn2ncnc(N)c2c1-c1ccc(NC(=O)Nc2cccc(C(F)(F)F)n2)cc1 [Example 165, 4-amino-N-(2,2-dimethylpropyl)-5-{4-[({[6-(trifluoromethyl)pyridin-2-yl]amino}carbonyl)amino]phenyl}pyrrolo[2,1-f][1,2,4]triazine-6-carboxamide]	< 0.5	–	–	–	–	–
N#CCc1cn2ncnc(N)c2c1-c1ccc(NC(=O)Nc2cc(C(F)(F)F)ccn2)cc1 [Example 226, N-{4-[4-amino-6-(cyanomethyl)pyrrolo[2,1-f][1,2,4]triazin-5-yl]phenyl}-N′-[4-(trifluoromethyl)pyridin-2-yl]urea]	–	0.1 to 0.5	< 10	1.5 to 5	1.5 to 5	–
CC(=O)c1cn2ncnc(N)c2c1-c1ccc(NC(=O)Nc2cc(C(F)(F)F)ccn2)cc1 [Example 233, N-[4-(6-acetyl-4-aminopyrrolo[2,1-f][1,2,4]triazin-5-yl)phenyl]-N′-[4-(trifluoromethyl)pyridin-2-yl]urea]	–	0.1 to 0.5	10 to 100	1.5 to 5	1.5 to 5	–
Nc1ncnn2cc(-c3nc(CO)co3)c(-c3ccc(NC(=O)Nc4cc(C(F)(F)F)ccn4)cc3)c12 [Example 234, N-(4-{4-amino-6-[4-(hydroxymethyl)-1,3-oxazol-2-yl]pyrrolo[2,1-f][1,2,4]triazin-5-yl}phenyl)-N′-[4-(trifluoromethyl)pyridin-2-yl]urea]	–	0.1 to 0.5	10 to 100	1.5 to 5	1.5 to 5	–
CC(C)(C)c1cc(NC(=O)Nc2ccc(-c3c(CO)cn4ncnc(N)c34)cc2)n(-c2ccc(F)cc2)n1 [Example 239, N-{4-[4-amino-6-(hydroxymethyl)pyrrolo[2,1-f][1,2,4]triazin-5-yl]phenyl}-N′-[3-tert-butyl-1-(4-fluorophenyl)-1H-pyrazol-5-yl]urea]	–	0.1 to 0.5	10 to 100	< 1.5	< 1.5	IC50 [3]: > 0.5 µM; IC50 [6]: > 0.5 µM
N#CCc1cn2ncnc(N)c2c1-c1ccc(NC(=O)Nc2cc(C(F)(F)F)ccc2F)cc1 [Example 240, N-{4-[4-amino-6-(cyanomethyl)pyrrolo[2,1-f][1,2,4]triazin-5-yl]phenyl}-N′-[2-fluoro-5-(trifluoromethyl)phenyl]urea]	–	> 0.5	100 to 500	1.5 to 5	1.5 to 5	IC50 ([2]; bound given in μM): < 1 µM
Nc1ncnn2cc(CO)c(-c3ccc(NC(=O)Nc4cc(C(F)(F)F)ccn4)c(F)c3)c12 [Example 243, N-{4-[4-amino-6-(hydroxymethyl)pyrrolo[2,1-f][1,2,4]triazin-5-yl]-2-fluorophenyl}-N′-[4-(trifluoromethyl)pyridin-2-yl]urea]	–	0.1 to 0.5	10 to 100	1.5 to 5	1.5 to 5	–
COCc1cn2ncnc(N)c2c1-c1ccc(NC(=O)Nc2cc(C(F)(F)F)ccn2)c(F)c1 [Example 247, N-{4-[4-amino-6-(methoxymethyl)pyrrolo[2,1-f][1,2,4]triazin-5-yl]-2-fluorophenyl}-N′-[4-(trifluoromethyl)pyridin-2-yl]urea]	–	0.1 to 0.5	100 to 500	1.5 to 5	1.5 to 5	–
